# Experimental data: article PMC11606603, “The membrane domains of mammalian adenylyl cyclases are lipid receptors” (eLife, 2024)
# Values joined by “and” are separate entries in the source; they are usually repeats but may differ in a detail not shown here. Equal values may be shown once.
# Experiments:
# Type in all cases: biochemical
# mAC3 = molecular target: T1, mAC3 (Homo sapiens, UniProt O60266); experiment: AC assay, Gsα-stimulated mAC3 in membranes from transfected HEK293 cells; conditions: for activity [%] (100% = 300nM Gsα stimulation): mAC3
# T1 construct: Human mAC genes were from GenScript and fitted with a C-terminal FLAG-tag; FLAG (C); made in house; host or cells: HEK293, permanently transfected; membrane preparation
# Procedure, shortened: (§1)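 cAMP formation was quantified by HTRF against a cAMP standard curve, with EC50 or IC50 derived by curve fitting. Reactions contained 1 mM ATP, 2 mM MgCl2, 3 mM creatine phosphate, 60 μg/ml creatine kinase and 50 mM MOPS pH 7.5, using membranes of stably transfected HEK293 cells carrying FLAG-tagged human AC.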
# mAC8 = molecular target: T2, mAC8 (Homo sapiens, UniProt P40145); experiment: AC assay, Gsα-stimulated mAC8 in membranes from transfected HEK293 cells; conditions: 20µM fatty acid concentration
# T2 construct: Human mAC genes were from GenScript and fitted with a C-terminal FLAG-tag; FLAG (C); made in house; host or cells: HEK293, permanently transfected; membrane preparation
# Procedure, shortened: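 Adenylyl cyclase activity was measured in 100,000 × g membrane fractions prepared from HEK293 cells permanently transfected with C-terminally FLAG-tagged human AC isoforms. Assays contained 1 mM ATP and 2 mM MgCl2 with an ATP-regenerating system at pH 7.5.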
# mAC4 = molecular target: T3, mAC4 (Homo sapiens, UniProt Q8NFM4); experiment: AC assay, Gsα-stimulated mAC4 in membranes from transfected HEK293 cells; conditions: for activity [%] (100% = 300nM Gsα stimulation): mAC4
# T3 construct: Human mAC genes were from GenScript and fitted with a C-terminal FLAG-tag; FLAG (C); made in house; host or cells: HEK293, permanently transfected; membrane preparation
# T3 sequence (Q8NFM4 1-1077): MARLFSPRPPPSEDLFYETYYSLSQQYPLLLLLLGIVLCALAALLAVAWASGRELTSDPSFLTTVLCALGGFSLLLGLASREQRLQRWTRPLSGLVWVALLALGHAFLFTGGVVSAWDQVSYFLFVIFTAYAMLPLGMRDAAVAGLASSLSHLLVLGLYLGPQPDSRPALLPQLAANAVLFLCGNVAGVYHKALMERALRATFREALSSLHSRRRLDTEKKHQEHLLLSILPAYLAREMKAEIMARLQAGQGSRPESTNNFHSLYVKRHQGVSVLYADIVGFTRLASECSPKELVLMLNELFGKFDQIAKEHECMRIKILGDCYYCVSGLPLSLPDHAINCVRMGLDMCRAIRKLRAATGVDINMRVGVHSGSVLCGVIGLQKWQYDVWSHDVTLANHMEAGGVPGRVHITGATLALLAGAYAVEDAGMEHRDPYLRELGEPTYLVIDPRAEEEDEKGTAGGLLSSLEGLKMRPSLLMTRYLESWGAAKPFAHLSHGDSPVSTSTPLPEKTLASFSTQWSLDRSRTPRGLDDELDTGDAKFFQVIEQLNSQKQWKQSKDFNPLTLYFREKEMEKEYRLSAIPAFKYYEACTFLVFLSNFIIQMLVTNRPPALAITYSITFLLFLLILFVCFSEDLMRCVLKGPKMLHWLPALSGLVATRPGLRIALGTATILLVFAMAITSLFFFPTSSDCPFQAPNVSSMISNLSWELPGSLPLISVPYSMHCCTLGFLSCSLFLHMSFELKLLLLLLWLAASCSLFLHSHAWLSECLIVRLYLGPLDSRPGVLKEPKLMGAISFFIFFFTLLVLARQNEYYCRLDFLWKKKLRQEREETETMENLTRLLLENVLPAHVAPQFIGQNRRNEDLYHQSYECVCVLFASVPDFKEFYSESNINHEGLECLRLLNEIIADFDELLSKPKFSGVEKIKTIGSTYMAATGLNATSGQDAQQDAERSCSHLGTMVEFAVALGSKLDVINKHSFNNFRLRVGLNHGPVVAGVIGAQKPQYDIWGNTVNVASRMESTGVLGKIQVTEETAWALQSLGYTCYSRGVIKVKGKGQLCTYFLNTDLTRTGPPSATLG
# Procedure, shortened: as §1
# mAC5 = molecular target: T4, mAC5 (Homo sapiens, UniProt O95622); experiment: AC assay, Gsα-stimulated mAC5 in membranes from transfected HEK293 cells; conditions: for activity [%] (100% = 300nM Gsα stimulation): mAC5
# T4 construct: Human mAC genes were from GenScript and fitted with a C-terminal FLAG-tag; FLAG (C); made in house; host or cells: HEK293, permanently transfected; membrane preparation
# Procedure, shortened: as §1
# mAC6 = molecular target: T5, mAC6 (Homo sapiens, UniProt O43306); experiment: AC assay, Gsα-stimulated mAC6 in membranes from transfected HEK293 cells; conditions: for activity [%] (100% = 300nM Gsα stimulation): mAC6
# T5 construct: Human mAC genes were from GenScript and fitted with a C-terminal FLAG-tag; FLAG (C); made in house; host or cells: HEK293, permanently transfected; membrane preparation
# Procedure, shortened: as §1
# [1] = 100µM Anandamide concentration, Figure 9 D
# [2] = attenuation of 300 nM Gsα-stimulated activity
# T2 sequence (P40145 whole entry): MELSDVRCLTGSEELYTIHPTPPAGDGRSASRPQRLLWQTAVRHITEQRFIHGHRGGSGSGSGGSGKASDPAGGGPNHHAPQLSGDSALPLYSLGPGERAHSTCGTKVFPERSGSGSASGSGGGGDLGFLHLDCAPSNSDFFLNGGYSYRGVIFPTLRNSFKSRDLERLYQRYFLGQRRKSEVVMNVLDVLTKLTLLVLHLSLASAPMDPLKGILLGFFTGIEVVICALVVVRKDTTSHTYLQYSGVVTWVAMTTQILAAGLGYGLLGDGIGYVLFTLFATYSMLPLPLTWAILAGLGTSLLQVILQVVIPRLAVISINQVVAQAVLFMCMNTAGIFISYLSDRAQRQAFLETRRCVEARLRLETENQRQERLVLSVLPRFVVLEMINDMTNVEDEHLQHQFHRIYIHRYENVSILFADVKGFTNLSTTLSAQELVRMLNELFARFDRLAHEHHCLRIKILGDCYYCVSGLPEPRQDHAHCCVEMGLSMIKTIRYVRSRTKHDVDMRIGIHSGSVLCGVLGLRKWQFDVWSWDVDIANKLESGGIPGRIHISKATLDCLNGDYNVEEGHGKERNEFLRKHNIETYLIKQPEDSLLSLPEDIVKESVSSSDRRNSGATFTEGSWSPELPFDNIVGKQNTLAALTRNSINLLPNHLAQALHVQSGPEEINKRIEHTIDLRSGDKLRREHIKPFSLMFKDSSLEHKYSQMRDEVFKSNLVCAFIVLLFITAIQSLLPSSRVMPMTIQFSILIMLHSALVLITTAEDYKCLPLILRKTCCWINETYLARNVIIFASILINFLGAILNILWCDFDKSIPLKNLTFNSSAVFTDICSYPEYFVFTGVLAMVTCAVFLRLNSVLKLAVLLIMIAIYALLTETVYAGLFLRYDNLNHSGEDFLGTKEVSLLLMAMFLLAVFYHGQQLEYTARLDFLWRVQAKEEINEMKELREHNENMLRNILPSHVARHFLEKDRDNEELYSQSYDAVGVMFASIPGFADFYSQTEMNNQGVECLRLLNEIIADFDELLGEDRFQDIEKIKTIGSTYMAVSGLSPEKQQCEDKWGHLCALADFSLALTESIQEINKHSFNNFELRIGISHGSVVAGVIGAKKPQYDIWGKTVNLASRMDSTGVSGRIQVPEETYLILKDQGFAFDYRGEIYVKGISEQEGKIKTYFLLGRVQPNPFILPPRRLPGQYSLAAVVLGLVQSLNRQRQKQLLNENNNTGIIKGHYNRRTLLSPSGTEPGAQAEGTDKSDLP
# T1 sequence (O60266 whole entry): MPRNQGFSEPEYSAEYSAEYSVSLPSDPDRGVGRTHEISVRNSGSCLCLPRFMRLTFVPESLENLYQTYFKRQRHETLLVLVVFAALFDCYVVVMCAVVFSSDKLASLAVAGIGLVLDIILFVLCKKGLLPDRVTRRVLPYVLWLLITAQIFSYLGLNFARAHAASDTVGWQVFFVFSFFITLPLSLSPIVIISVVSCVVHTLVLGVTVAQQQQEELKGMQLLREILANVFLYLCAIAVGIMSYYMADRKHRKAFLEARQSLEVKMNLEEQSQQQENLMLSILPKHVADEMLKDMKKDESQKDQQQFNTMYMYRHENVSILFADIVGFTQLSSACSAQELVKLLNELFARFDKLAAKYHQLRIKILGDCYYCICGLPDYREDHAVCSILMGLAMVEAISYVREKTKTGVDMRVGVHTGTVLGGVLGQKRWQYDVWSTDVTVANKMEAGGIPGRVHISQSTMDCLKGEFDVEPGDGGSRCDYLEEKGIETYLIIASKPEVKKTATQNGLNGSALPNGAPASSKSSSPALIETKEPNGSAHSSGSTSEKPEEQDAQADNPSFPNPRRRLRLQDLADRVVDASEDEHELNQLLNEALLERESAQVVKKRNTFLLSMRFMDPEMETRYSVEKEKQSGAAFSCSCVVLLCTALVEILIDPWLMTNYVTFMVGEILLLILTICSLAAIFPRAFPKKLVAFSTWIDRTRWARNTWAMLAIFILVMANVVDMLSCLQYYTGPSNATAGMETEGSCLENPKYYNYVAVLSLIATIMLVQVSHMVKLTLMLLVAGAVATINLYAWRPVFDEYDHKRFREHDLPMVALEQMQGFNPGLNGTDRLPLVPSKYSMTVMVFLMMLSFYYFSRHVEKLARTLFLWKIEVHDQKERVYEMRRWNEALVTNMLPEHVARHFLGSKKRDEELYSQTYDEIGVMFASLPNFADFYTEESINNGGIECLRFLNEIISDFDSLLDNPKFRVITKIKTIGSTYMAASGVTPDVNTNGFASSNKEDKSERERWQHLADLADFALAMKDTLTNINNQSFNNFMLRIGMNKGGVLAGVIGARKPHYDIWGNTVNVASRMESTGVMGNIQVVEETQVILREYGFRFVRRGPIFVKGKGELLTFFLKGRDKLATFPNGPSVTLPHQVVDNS
# T1 sequence (P63092 whole entry Q227L partner): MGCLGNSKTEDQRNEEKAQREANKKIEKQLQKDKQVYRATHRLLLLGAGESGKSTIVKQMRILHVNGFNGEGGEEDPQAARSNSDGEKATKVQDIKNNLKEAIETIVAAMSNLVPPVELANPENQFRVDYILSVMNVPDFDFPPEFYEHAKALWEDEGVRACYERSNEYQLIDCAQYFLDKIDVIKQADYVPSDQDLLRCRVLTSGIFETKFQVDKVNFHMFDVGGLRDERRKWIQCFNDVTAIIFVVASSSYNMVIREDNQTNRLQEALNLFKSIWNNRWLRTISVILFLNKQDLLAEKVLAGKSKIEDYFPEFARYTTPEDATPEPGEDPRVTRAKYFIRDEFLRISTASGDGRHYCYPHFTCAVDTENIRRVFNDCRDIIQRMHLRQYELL
# T4 sequence (O95622 whole entry): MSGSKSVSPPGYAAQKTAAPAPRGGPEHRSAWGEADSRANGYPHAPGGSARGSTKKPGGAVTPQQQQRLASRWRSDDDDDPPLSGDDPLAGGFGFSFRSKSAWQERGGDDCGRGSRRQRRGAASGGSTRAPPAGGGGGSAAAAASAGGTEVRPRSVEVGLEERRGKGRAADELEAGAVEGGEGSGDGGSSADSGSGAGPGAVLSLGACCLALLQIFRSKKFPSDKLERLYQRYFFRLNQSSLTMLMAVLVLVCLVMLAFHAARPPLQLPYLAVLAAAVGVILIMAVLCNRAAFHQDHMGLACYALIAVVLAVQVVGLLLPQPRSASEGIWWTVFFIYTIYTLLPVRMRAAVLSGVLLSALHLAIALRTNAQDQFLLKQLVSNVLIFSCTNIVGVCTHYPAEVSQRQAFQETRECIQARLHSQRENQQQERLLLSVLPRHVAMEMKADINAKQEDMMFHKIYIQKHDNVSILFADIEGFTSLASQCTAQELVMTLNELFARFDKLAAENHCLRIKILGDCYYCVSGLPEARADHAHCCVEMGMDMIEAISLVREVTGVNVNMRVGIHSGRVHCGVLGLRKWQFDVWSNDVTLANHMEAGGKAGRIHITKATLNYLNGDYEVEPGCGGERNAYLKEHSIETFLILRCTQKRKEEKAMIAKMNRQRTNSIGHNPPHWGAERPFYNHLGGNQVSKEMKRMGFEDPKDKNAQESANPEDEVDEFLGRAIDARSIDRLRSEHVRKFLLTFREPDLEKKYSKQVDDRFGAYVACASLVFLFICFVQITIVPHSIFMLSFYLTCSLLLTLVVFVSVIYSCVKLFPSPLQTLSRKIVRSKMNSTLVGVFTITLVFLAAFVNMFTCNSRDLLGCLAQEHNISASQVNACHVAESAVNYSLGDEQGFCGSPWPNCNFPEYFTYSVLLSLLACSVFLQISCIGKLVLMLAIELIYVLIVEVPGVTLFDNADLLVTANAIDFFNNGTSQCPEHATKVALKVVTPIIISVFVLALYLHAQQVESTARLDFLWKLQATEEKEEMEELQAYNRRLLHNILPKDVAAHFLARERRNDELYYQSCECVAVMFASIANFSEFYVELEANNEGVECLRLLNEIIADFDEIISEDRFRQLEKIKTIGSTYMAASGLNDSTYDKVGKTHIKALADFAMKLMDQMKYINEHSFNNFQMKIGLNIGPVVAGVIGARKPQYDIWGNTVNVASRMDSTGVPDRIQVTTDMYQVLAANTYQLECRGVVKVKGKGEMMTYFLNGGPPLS
smiles,measurement,setting,value
"CCCCC/C=C\C/C=C\C/C=C\C/C=C\CCCC(=O)O [Arachidonic acid, Arachidonic ((5Z,8Z,11Z,14Z)-eicosatetraenoic) acid]",mAC3 activity [%] (100% = 300nM Gsα stimulation),"mAC3; fatty acid 20 µM, individual experiments",115% and 168% and 182% and 127%
same,mAC8 activity [%] (100% = 300nM Gsα stimulation),mAC8,90% and 106% and 87%
same,IC50,mAC4,36 µM
same,Effect of lipid on 300 nM Gsα-stimulated mAC4,"mAC4; 20 µM, in words",significantly attenuated
same,activity [%] (100% = 300nM Gsα stimulation),"mAC4; 1 µM, 300 nM Gsα, single experiments",68% and 108% and 85% and 103% and 89% and 87% and 67% and 75%
same,activity [%] (100% = 300nM Gsα stimulation),"mAC4; 3 µM, 300 nM Gsα, single experiments",72% and 95% and 69% and 73% and 97% and 106% and 108%
same,activity [%] (100% = 300nM Gsα stimulation),"mAC4; 6 µM, 300 nM Gsα, single experiments",70% and 85% and 107% and 83% and 91% and 126%
same,activity [%] (100% = 300nM Gsα stimulation),"mAC4; 30 µM, 300 nM Gsα, single experiments",84% and 74% and 88%
same,activity [%] (100% = 300nM Gsα stimulation),"mAC4; 100 µM, 300 nM Gsα, single experiments",22% and 14% and 13%
same,mAC5 activity [%] (100% = 300nM Gsα stimulation),mAC5; 20µM fatty acid concentration,97% and 73% and 120% and 131% and 110%
"CCCCC/C=C\C/C=C\C/C=C\C/C=C\CCCC(=O)NCCO [Anandamide, arachidonoylethanolamide]",activity [%] (100% = 300nM Gsα stimulation),mAC3; [1],165%
same,activity [%] (100% = 300nM Gsα stimulation),mAC3; Anandamide 0.1 µM,100%
same,activity [%] (100% = 300nM Gsα stimulation),mAC3; Anandamide 1 µM,87% and 101% and 117% and 100% and 94% and 127% and 77%
same,activity [%] (100% = 300nM Gsα stimulation),mAC3; Anandamide 10 µM,105% and 80% and 130% and 120% and 88% and 111% and 112% and 137%
same,activity [%] (100% = 300nM Gsα stimulation),mAC3; Anandamide 30 µM,96% and 65% and 85% and 72% and 94% and 68% and 100% and 101%
same,IC50,mAC6; [2],23 µM and 22 µM
same,activity [%] (100% = 300nM Gsα stimulation),mAC6; Anandamide 0.1 µM,100%
same,activity [%] (100% = 300nM Gsα stimulation),mAC6; Anandamide 0.5 µM,100% and 94%
same,activity [%] (100% = 300nM Gsα stimulation),mAC6; Anandamide 1 µM,89%
same,activity [%] (100% = 300nM Gsα stimulation),mAC6; Anandamide 20 µM,89%
same,activity [%] (100% = 300nM Gsα stimulation),mAC6; Anandamide 30 µM,60% and 59% and 57% and 63% and 40%
same,activity [%] (100% = 300nM Gsα stimulation),mAC6; Anandamide 35 µM,73%
same,activity [%] (100% = 300nM Gsα stimulation),mAC6; Anandamide 100 µM,26%
same,Effect of anandamide on Gsα-stimulated mAC4,"mAC4; concentration–response, higher concentrations, in words",distinctly not
same,activity [%] (100% = 300nM Gsα stimulation),mAC4; Anandamide 0.1 µM,100%
same,activity [%] (100% = 300nM Gsα stimulation),mAC4; Anandamide 3 µM,86% and 113% and 96% and 121% and 82%
same,activity [%] (100% = 300nM Gsα stimulation),mAC4; Anandamide 30 µM,107%
same,IC50,mAC5; [2],42 µM
same,activity [%] (100% = 300nM Gsα stimulation),mAC5; [1],55% and 58% and 70% and 40% and 56% and 45% and 65% and 60%
same,activity [%] (100% = 300nM Gsα stimulation),mAC5; Anandamide 0.1 µM,100%
same,activity [%] (100% = 300nM Gsα stimulation),mAC5; Anandamide 0.5 µM,96% and 115% and 93% and 114% and 127%
same,activity [%] (100% = 300nM Gsα stimulation),mAC5; Anandamide 3 µM,122% and 77%
same,activity [%] (100% = 300nM Gsα stimulation),mAC5; Anandamide 8 µM,101%
same,activity [%] (100% = 300nM Gsα stimulation),mAC5; Anandamide 10 µM,99%
same,activity [%] (100% = 300nM Gsα stimulation),mAC5; Anandamide 35 µM,78% and 77% and 119%
same,activity [%] (100% = 300nM Gsα stimulation),mAC5; Anandamide 40 µM,58% and 74%
same,activity [%] (100% = 300nM Gsα stimulation),mAC5; Anandamide 80 µM,47%
